From PMC10716780, “The multistep oxidation of cholesterol to pregnenolone by human cytochrome P450 11A1 is highly processive” (The Journal of Biological Chemistry, 2023)
“Also recorded” adds a separate entry of the source. Like-named read-outs stand apart in the source and are kept apart here. Each block holds one compound with its values, some of them ahead of it.

Tests used:
human P450 11A1 [1] = target: T1, human P450 11A1 (Homo sapiens, UniProt P05108); experiment: Steady-state spectral (type I) binding titration, Kd determination; details: up to 1 mM
T1 construct: M A S T R S P R P F N E I P S P G D N; Met-Ala (N-terminal start residues in place of the transit peptide and Ile40) (N); made in house; host or cells: E. coli C41(DE3) with GroES/GroEL, vector pET23C(+)
T1 sequence (P05108 41-521 limits assumed): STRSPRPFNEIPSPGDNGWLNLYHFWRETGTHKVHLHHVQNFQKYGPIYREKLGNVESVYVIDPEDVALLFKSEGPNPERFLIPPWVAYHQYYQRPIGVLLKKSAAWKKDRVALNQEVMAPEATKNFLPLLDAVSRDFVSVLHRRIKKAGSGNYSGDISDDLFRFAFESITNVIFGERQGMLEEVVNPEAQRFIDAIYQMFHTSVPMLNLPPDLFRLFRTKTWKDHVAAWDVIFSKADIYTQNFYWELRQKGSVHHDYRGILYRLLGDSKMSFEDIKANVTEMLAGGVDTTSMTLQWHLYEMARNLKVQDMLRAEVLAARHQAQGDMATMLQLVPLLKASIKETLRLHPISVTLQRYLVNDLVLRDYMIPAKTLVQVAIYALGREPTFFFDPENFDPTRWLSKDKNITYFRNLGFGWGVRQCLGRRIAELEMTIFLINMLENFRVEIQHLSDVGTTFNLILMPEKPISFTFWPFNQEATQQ
Experimental: Ligand binding constants were determined from the low-to high-spin (hypsochromic) spectral transition that occurs at the P450 heme as substrate entering the active site replaces water as the sixth axial heme ligand. […] As a result, we subsequently measured koff values of the P450-sterol complexes, which were consistent with the low Kd values observed (see below). Binding titrations were repeated in the presence of Adx (1 M equivalent, Fig. 6), although no significant effect was observed, even when Adx was added in excess (10-fold with cholesterol as the substrate, data not shown).
Spectra were recorded using either an OLIS-Cary 14 or OLIS-Aminco DW2a instrument (On-Line Instrument Systems) in the split-beam mode. The OLIS-Cary 14 instrument was used in the P450 11A1 titrations with a 10-cm cell (Starna Cells, catalog no. 34-Q-100, volume 25 ml).
Kd values were determined by difference spectroscopy as previously reported ([33], [43]) but with some modifications. Briefly, a long-path quartz cuvette (10 cm, 25 ml) containing P450 11A1 (0.1 μM, in 100 mM potassium phosphate buffer (pH 7.4)) was prepared and a baseline was recorded in an OLIS-Cary 14 spectrophotometer. Where indicated, the redox partner Adx was added in equimolar concentration (0.1 μM) to P450. Sterol solutions (in 45% HPCD, w/v) were added to the cuvette, the contents of the cuvette were inverted to mix, and a spectrum was recorded (350–500 nm) after each addition. The total volume added to each cuvette was kept ≤2% (v/v, 0.25 ml) in the assay. The maximum absorbance difference (usually ΔA390−A418) was plotted against the total sterol concentration, and the data were fit to a quadratic equation in GraphPad Prism software (GraphPad, https://www.graphpad.com) to estimate the dissociation constant (Kd). A quadratic equation was used to correct the ligand concentration for the enzyme-bound concentration (used as Y=B+A/2∗1/E∗((Kd+E+X)−(Kd+E+X)^2−(4∗E∗X)) (or Y = B + (A/2)∗(1/E)∗((Kd + E + X)-sqrt((Kd + E + X)∧2 -(4∗E∗X)) in Prism software), where E = enzyme concentration, Kd = dissociation constant, and X = […]).

human P450 11A1 [2] = target: T2, human P450 11A1 (Homo sapiens, UniProt P05108); experiment: Effect of Tween 20 and lipids on P450 11A1 catalytic activity (cholesterol to pregnenolone); details: for effect on P450 11A1 catalytic activity: 50 μM cholesterol, 0.25 μM P450 11A1, lipids 30 μM phospholipid
T2 sequence (P05108 41-521 limits assumed): T1 sequence (P05108 41-521 limits assumed)
T2 sequence (P00257 59-186 partner): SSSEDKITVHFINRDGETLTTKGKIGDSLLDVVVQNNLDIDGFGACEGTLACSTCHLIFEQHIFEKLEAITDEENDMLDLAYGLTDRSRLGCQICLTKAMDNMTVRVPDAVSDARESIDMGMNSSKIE
Experimental: The substrate cholesterol and its 22R-OH and 20R,22R-(OH)2 products were delivered in 2-hydroxypropyl-β-cyclodextrin (HPCD) ([36]) in assays, circumventing the need to use any detergents or organic solvents.
Reactions were run in triplicate and the conversion of cholesterol to pregnenolone was calculated and plotted (nmol pregnenolone formed min^−1 (nmol P450)^−1). (Note: These assays were done with P450 11A1 purified in the absence of Tween 20.). AdR, adrenodoxin reductase; Adx, adrenodoxin; P450, cytochrome P450.
Reactions were run in triplicate and the conversion of cholesterol to pregnenolone was calculated and plotted (nmol pregnenolone formed min^−1 (nmol P450)^−1). AdR, adrenodoxin reductase; Adx, adrenodoxin; P450, cytochrome P450.
Sterol dilutions were performed in HPCD to ensure that the HPCD composition was equal throughout all incubations (final 4.5% w/v). The reaction mixture was split between vials (425 μl in each), and reactions were preincubated (37 °C, 5 min) prior to initiation (75 μl) with an NADPH-generating system (0.5 mM NADP^+, 10 mM glucose 6-phosphate, and 2 μg ml^−1 glucose 6-phosphate dehydrogenase) ([61]). Reactions (5 min) were terminated by extraction into CH2Cl2 (2 ml) and transferred to an ice bath. After the experiment was complete, the quenched reactions were subjected to centrifugation (10^3g, 5 min, 23 °C) to separate layers, the organic (bottom) layer of each sample was removed (1.6 ml) to fresh glass vials, and the samples were brought to dryness under a stream of nitrogen.

P450 11A1 (CYP11A1) = target: T3, P450 11A1 (CYP11A1) (Homo sapiens, UniProt P05108); experiment: Kinetic isotope effect assay, disappearance of d0- and d3-cholesterol under single-turnover conditions; format: biochemical; details: human, pH 7.4; 5 μM P450, 5 μM sterol, low Adx single-turnover; read-out: sterol half-life (t1/2) (converted)
T3 construct: M A S T R S P R P F N E I P S P G D N; Met-Ala (N-terminal start residues in place of the transit peptide and Ile40) (N); made in house; host or cells: E. coli (P450 11A1 in C41(DE3); Adx and AdR in E. coli)
T3 sequence (P05108 41-521 limits assumed): T1 sequence (P05108 41-521 limits assumed)
T3 sequence (P00257 59-186 partner): T2 sequence (P00257 59-186 partner)
Experimental: (§1) P450 11A1 incubations were performed under (low Adx) single-turnover conditions (5 μM P450, 5 μM cholesterol; see Experimental procedures) with d0- (authentic, unlabeled) and d3-cholesterol, and the disappearance of each was monitored by LC-atmospheric pressure chemical ionization-MS (m/z 369.3516 and 372.3705, respectively). In theory, if C-H bond breaking were rate-limiting in the initial hydroxylation then the rate of d3-cholesterol consumption would be slower relative to the d0 compound due to the increased strength of a C-D bond.
The kinetic isotope experiment was designed similarly to the benchtop experiment described above, but with some modifications. P450 11A1 (5 μM) was reconstituted with the redox partners AdR (10 μM) and Adx (5 μM) on ice (10 min) prior to dilution in potassium Hepes (50 mM, pH 7.4) and H2O and addition of d3-cholesterol substrate (5 μM). […]
Samples (held at 4 °C) were injected (10 μl) using a Waters Acquity UPLC system on a Acquity BEH octadecylsilane (C18) 2.1 mm × 50 mm (1.7 μm) UPLC column (held at 25 °C) with a flow rate of 0.5 ml min^−1 using an isocratic mobile phase of CH3CN (only). The column eluate was subjected to atmospheric pressure chemical ionization and analyzed using a Thermo Fisher Scientific LTQ XL Orbitrap mass spectrometer instrument operating in positive mode, scanning from m/z 100 to 500, with a resolution setting of 120,000. […]

human P450 11A1 [3] = target: T2, human P450 11A1; experiment: as above; format: biochemical; design: M A S T R S P R P F N E I P S P G D N; Met-Ala (N-terminal start residues in place of the transit peptide and Ile40) (N); made in house; host or cells: E. coli (P450 11A1 in C41(DE3); Adx and AdR in E. coli); details: for kinetic isotope effect: C-22 hydroxylation, single-turnover
Experimental: as §1
The kinetic isotope experiment was designed similarly to the benchtop experiment described above, but with some modifications. P450 11A1 (5 μM) was reconstituted with the redox partners AdR (10 μM) and Adx (5 μM) on ice (10 min) prior to dilution in potassium Hepes (50 mM, pH 7.4) and H2O and addition of d3-cholesterol substrate (5 μM). The mixture was preincubated (5 min) prior to initiation with NADPH (2.5 mM, from 25 mM in potassium Hepes (50 mM, pH 7.4)) thus bringing all components to their desired final concentrations. After completing the desired incubation time, an aliquot (500 μl) was removed from the incubation and added to vials containing CH2Cl2 (5 ml) and the vials were mixed with a vortex device and placed on ice. The quenched reactions were centrifuged (10^3g, 5 min, 23 °C) to separate layers, and the organic (bottom) layers were removed (4 ml) and transferred to fresh glass vials. The extraction process was repeated and the two extracts (2 × 4 ml) from each sample were combined to maximize product recovery. Samples (8 ml) were brought to dryness under a stream of nitrogen, and the dried residues were dissolved in CH3OH (25 μl) and transferred to autosampler vials for analysis.
Samples (held at 4 °C) were injected (10 μl) using a Waters Acquity UPLC system on a Acquity BEH octadecylsilane (C18) 2.1 mm × 50 mm (1.7 μm) UPLC column (held at 25 °C) with a flow rate of 0.5 ml min^−1 using an isocratic mobile phase of CH3CN (only). The column eluate was subjected to atmospheric pressure chemical ionization and analyzed using a Thermo Fisher Scientific LTQ XL Orbitrap mass spectrometer instrument operating in positive mode, scanning from m/z 100 to 500, with a resolution setting of 120,000. Data were processed using Xcalibur QualBrowser (Thermo Fisher Scientific) software (version 2.0.7; https://www.thermofishcer.com/order/catalog/product/OPTON).

human P450 11A1 [4] = target: T1, human P450 11A1; experiment: Stopped-flow ketoconazole trap, koff and binding rate measurements
Experimental: Interaction of the azole nitrogen atom with the P450 heme produces a bathochromic (“type II”) spectral shift (to ∼430 nm)—an inverse effect of the binding of substrate.
Measurement of kon rate(s) was not performed because the sterols are delivered in a solution of HPCD, from which the dissociation rate is not known.
Determinations of koff rates were performed as previously described ([33]).

- half-life at 5 μM (P450 11A1 (CYP11A1)): 0.367 min
- rate of disappearance (human P450 11A1 [3]; 5 μM P450, 5 μM sterol, exponential decay fit): 0.032 s⁻¹
- kinetic isotope effect (human P450 11A1 [3]): did not observe a kinetic isotope effect
- kinetic isotope effect (human P450 11A1 [3]; listed as d3-Cholesterol): no kinetic deuterium isotope effect
Compound: [2H]C([2H])(CCC(C)C)[C@@]([2H])(C)[C@H]1CC[C@H]2[C@@H]3CC=C4C[C@@H](O)CC[C@]4(C)[C@H]3CC[C@@]21C [d3-cholesterol, (20R)-Cholest-5-ene-20,22,22-d3-3β-ol]

- observed rate of ketoconazole binding (ΔA430) (human P450 11A1 [4]; 20 μM ketoconazole mixed with 2 μM P450 11A1, equal volumes, 23 °C): 5.3 s⁻¹
- kon (human P450 11A1 [4]; read-out: fast phase of biexponential fit (ketoconazole kon), cholesterol data, trap experiment with P450-cholesterol complex): 710000 M⁻¹ s⁻¹
- kon (human P450 11A1 [4]; read-out: fast phase of biexponential fit (ketoconazole kon), pregnenolone data, trap experiment with P450-pregnenolone complex): 790000 M⁻¹ s⁻¹
- kon (human P450 11A1 [4]; read-out: rate of ketoconazole binding to unliganded P450 11A1 (kon), stopped-flow, unliganded enzyme): ≥ 500000 M⁻¹ s⁻¹
Compound: CC(=O)N1CCN(c2ccc(OCC3COC(Cn4ccnc4)(c4ccc(Cl)cc4Cl)O3)cc2)CC1 (centres unmarked) [ketoconazole, reference compound]

- effect on P450 11A1 catalytic activity (human P450 11A1 [2]): inhibit
Compound: cardiolipin

The remaining lines, values behind:

Compound: CC(C)CCC=O [4-methylpentanal]
- spectral shift with P450 11A1 (human P450 11A1 [1]): did not induce a spectral shift

Compound: CCCCCCCCCCCC(=O)OC[C@H](COP(=O)([O-])OCC[N+](C)(C)C)OC(=O)CCCCCCCCCCC [L-α-dilauroyl-sn-glycero-3-phosphocholine]
- effect on P450 11A1 catalytic activity (human P450 11A1 [2]): not enhanced

Compound: CCCCCCCC/C=C\CCCCCCCC(=O)OC[C@H](COP(=O)([O-])OCC[N+](C)(C)C)OC(=O)CCCCCCC/C=C\CCCCCCCC [L-α-dioleyl-sn-glycero-3-phosphocholine]
- effect on P450 11A1 catalytic activity (human P450 11A1 [2]): not enhanced

Compound: Tween 20
- concentrations found inhibitory (human P450 11A1 [2]; 0.25 μM P450 11A1, 50 μM cholesterol, 40-fold Adx): > 0.008 % (w/v)
- effect on P450 11A1 catalytic activity (human P450 11A1 [2]): inhibitory; also recorded: inhibited; also recorded: strongly inhibitory; also recorded: inhibits the enzyme
